Data from US20100105689A1, “NOVEL 1,4- AND 1,5-DIARYLSUBSTITUTED 1,2,3-TRIAZOLES USEFUL AS POTASSIUM CHANNEL MODULATORS” (priority 2007, published 2010).

Assays:
[1] = molecular target: T1, BK channels heterologously expressed in Xenopus laevis oocytes (Homo sapiens, UniProt Q12791); experiment: BK channel opening activity, two-electrode voltage clamp in oocytes; format: cell-based; conditions: Compound at 30 μM, step from −40 mV to +30 mV, added after a stable current level was reached, FIG. 1
T1 construct: expressed in transfected cells; host or cells: Xenopus laevis oocytes
T1 sequence (Q12791 whole entry): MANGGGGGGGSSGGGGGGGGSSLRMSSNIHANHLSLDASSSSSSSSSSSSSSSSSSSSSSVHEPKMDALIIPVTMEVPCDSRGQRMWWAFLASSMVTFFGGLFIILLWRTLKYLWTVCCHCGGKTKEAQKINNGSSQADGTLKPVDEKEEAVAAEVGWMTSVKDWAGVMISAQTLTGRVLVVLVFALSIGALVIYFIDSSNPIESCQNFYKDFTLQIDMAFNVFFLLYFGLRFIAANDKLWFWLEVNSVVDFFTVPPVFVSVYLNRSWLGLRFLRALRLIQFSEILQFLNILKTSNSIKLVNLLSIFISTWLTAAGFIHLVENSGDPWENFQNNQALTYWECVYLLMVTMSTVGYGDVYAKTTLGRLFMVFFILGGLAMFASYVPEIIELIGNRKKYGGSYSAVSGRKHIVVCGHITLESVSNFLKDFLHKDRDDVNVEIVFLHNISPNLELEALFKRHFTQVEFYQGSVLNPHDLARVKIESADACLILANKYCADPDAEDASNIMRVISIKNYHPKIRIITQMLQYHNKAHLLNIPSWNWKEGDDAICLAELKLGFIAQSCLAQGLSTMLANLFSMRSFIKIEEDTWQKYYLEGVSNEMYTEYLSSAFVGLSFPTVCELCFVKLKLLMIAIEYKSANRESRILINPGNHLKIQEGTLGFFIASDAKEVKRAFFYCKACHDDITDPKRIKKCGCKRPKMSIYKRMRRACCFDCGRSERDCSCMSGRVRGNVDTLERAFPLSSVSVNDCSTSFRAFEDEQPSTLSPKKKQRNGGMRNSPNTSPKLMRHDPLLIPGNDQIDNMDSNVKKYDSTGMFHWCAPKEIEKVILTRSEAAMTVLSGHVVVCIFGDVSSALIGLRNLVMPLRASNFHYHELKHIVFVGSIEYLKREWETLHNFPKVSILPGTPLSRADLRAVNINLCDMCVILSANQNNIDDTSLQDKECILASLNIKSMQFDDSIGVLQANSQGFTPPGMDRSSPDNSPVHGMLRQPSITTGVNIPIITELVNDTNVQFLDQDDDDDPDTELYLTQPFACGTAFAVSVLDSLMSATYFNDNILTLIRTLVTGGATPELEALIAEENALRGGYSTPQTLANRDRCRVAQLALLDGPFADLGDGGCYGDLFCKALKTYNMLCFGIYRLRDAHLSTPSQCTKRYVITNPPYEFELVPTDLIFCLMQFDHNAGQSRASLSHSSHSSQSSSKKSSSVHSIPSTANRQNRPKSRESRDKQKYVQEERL
Method: In this example the BK channel opening activity of a 1,5-diarylsubstituted 1,2,3-triazole derivative for use according to the invention, i.e. CMPD-2 (herein designated Compound A), is determined using BK channels heterologously expressed in Xenopus laevis oocytes.
The electrical current through the BK channel is measured conventional two-electrode voltage clamp. BK current is activated by repeated step protocols. In brief, this protocol goes from a resting membrane potential of −40 mV lasting for 5 s to a depolarised step to +30 mV lasting for 1 s. The protocol was repeated continuously.
Having reached a stable current level, Compound A (30 μM), was added.

| melting point | BK current activated by depolarisation (BK channel opening activity) [1] | SMILES |
| --- | --- | --- |
| 230.5 to 232.1 °C | – | FC(F)(F)c1cccc(-c2cnnn2-c2cc(Cl)ccc2-c2nnn[nH]2)c1 [CMPD-3, 5-{4-Chloro-2-[5-(3-trifluoromethyl-phenyl)-[1,2,3]triazol-1-yl]-phenyl}-1H-tetrazole] |
| 181.1 to 183.6 °C | – | FC(F)(F)c1cccc(-c2cnnn2-c2cc(Cl)ccc2OCc2nnn[nH]2)c1 [CMPD-6, 5-{4-Chloro-2-[5-(3-trifluoromethyl-phenyl)-[1,2,3]triazol-1-yl]-phenoxymethyl}-1H-tetrazole] |
| – | marked increase | FC(F)(F)c1ccc(-c2ccc(-n3nncc3-c3cc(C(F)(F)F)cc(C(F)(F)F)c3)c(-c3nnn[nH]3)c2)cc1 [Compound A, 5-{4-[5-(3,5-Bis-trifluoromethyl-phenyl)-[1,2,3]triazol-1-yl]-4′-trifluoromethyl-biphenyl-3-yl}-1H-tetrazole] |
